# Measurements taken from paper PMC5421877, “SOCS3 inhibits the pathological effects of IL-22 in non-melanoma skin tumor-derived keratinocytes” (Oncotarget, 2017).
# What was measured:
# CAL33 cells = assay: Scratch assay (migration), CAL33; assay type: cell-based; settings: CAL33; 40 μM peptide, PD98059 20 μM or S3I-201 10 μM; IL-22 50 ng/ml, 24 h
# Description: (§1) Figure 6 IL-22-induced proliferation and migration of healthy and transformed keratinocytes is counteracted by KIR-ESS peptide (A) Healthy KC, CAL27 and CAL33 cultures were plated in 96-well plates in quadruplicate for each condition. After 1 day, cells were pre-treated or not with Ctrl1 or KIR-ESS peptides (40 μM), or S31-201 ([…]) and PD98059 ([…]) chemical inhibitors, and, then, stimulated or not with 50 ng/ml of IL-22. Data relative to 48-h treatment are shown and expressed as the values of fluorescence intensity obtained from untreated and IL-22-treated ± SD. Three independent experiments were performed. *p < 0.01. (B) Scratch assays were carried out on healthy or SCC-lines, pre-incubated with mitomycin C (5 mg/ml), pre-treated with Ctrl1 or KIR-ESS peptides (40 μM), or S31-201 ([…]) or PD98059 ([…]) chemical inhibitors, and, then, stimulated or not with IL-22 for 24 h. Microscopic images were taken immediately after and 24 h after wound induction on confluent cell layers. Initial scratches (0 h) are dashed blank. (C) Cell-free area was measured and indicated as residual wound. Data are reported as healed wound (gray area of bars) vs residual wound (white area of bars) which a value of 100% was given. *p < 0.01.
# (§2) Cultured keratinocytes and SCC cell lines were grown at 100% confluence on type IV collagen (20 μg/ml), and then incubated with mitomycin C (5 mg/ml) (Sigma-Aldrich) for 1 h. Cell monolayers were scratched with the tip of a p-200 pipette to create uniform cell-free zones, and, then, pre-treated with appropriate concentrations of SOCS3 mimetic or control peptides, or with 10 μM STAT3 (S3I-201, Santa Cruz) and 20 μM Erk1/2 (PD98059, Calbiochem) inhibitors for 1 h, before treating by 50 ng/ml of IL-22. Microscopy pictures were taken with a digital camera at different time points following IL-22 treatment. The residual gap between migrating keratinocytes was measured with a computer-assisted image analysis system (Axiovision; Zeiss, Oberkochen, Germany), and expressed as percentage of the initial scratched area.
# healthy keratinocytes = assay: CyQUANT proliferation assay, healthy keratinocytes; assay type: cell-based, human; settings: healthy KC; PD98059 20 μM or S3I-201 10 μM, 48 h
# Description: (§3) Figure 6 IL-22-induced proliferation and migration of healthy and transformed keratinocytes is counteracted by KIR-ESS peptide (A) Healthy KC, CAL27 and CAL33 cultures were plated in 96-well plates in quadruplicate for each condition. After 1 day, cells were pre-treated or not with Ctrl1 or KIR-ESS peptides (40 μM), or S31-201 ([…]) and PD98059 ([…]) chemical inhibitors, and, then, stimulated or not with 50 ng/ml of IL-22. Data relative to 48-h treatment are shown and expressed as the values of fluorescence intensity obtained from untreated and IL-22-treated ± SD. Three independent experiments were performed. *p < 0.01. […] (C) Cell-free area was measured and indicated as residual wound. […]
# (§4) SOCS1- and SOCS3 stably transfected keratinocytes or cultured keratinocytes previously transfected with SOCS3 or control siRNA were seeded in 96-well plates (1.5–2.0 × 10^4 cells/well), and, the day after, starved in medium without serum. At 60% confluence, cells were treated with 75 ng/ml of IL-22 for 3 days, stained with 0.5% crystal violet (Bio-Rad, Hercules, CA, USA), and then analyzed in an ELISA reader (model 3550 UV ELISA reader; Bio-Rad). […] After 1-h pre-incubation, cells were treated with IL-22 or left unstimulated, cultured for other 24, 48 and 72 h, and the number of viable cells determined by CyQUANT Cell Proliferation Assay, accordingly to manufacture's protocol. […]
# [1] = system: SCC-cell lines (CAL27 and CAL33); assay: CyQUANT proliferation assay, SCC-cell lines; assay type: cell-based; settings: PD98059 20 μM or S3I-201 10 μM, 48 h
# Description: as §3, §4
# CAL27 cells = assay: Scratch assay (migration), CAL27; assay type: cell-based; settings: 24 h
# Description: as §1, §2
# [2] = system: SOCS3 expression in healthy keratinocytes; assay: SOCS3 mRNA and protein induction in healthy keratinocytes; assay type: cell-based, human; settings: healthy keratinocytes, 3 h mRNA, 6 h protein
# Description: Figure 1 IL-22 induces SOCS3, which limits STAT3 and Erk1/2 activation (A) Keratinocyte cultures (n = 3) were stimulated with IL-22 or not for 10 min and protein lysates were subjected to immunoprecipitation and WB analyses for basal and phospho-IL-22R1, Tyk2 or Jak1. (B) WB of time-course experiments were performed on keratinocyte cultures (n = 3) to evaluate basal STAT3, Erk1/2 and MEK or phosphor-STAT3 (Tyr705 and Ser 727), phosphor-Erk1/2 and phospho-MEK. Anti-β-actin Ab was used to normalize sample loading. (C) SOCS mRNA and protein levels were detected by real-time PCR or WB analyses in cultured keratinocytes prepared from healthy skin (n = 3) left untreated or stimulated with IL-22 for the indicated time periods and normalized with β-actin values. (D) HaCaT cells stably transfected with myc-tagged SOCS1 (n = 4), SOCS2 (n = 2) and SOCS3 (n = 4) genes or control plasmids (mock, n = 3) were left untreated or stimulated with IL-22 for 15 min or 3 h and lysates subjected to WB with anti-phospho STAT3 (Tyr705), -phospho STAT3 (Ser727), -STAT3, -phospho Erk, -Erk, -c-myc and -β-actin Abs, as indicated. (E) Keratinocyte cultures were transiently transfected with siRNA specific for SOCS3 or control siRNA (NC). After 48-h transfection, cells were stimulated with IL-22 or not for the indicated time periods. In RNA interference experiments, data were obtained by three independent experiments, and SOCS3 depletion was assessed by real-time PCR and WB. […] Data are expressed as ratio of densitometric intensity (D. I.) of phosphorylated and unphosphorylated STAT3 and Erk1/2 proteins. p < 0.05 (*) values were considered significant.
# Figure 4 SOCS3 and SOCS1 are poorly expressed in the epidermis of NMSC lesions and are not induced in transformed keratinocytes by IL-22 (A) Immunohistochemistry for SOCS3 and SOCS1 (red staining) was performed respectively on frozen or paraffin-embedded sections from biopsies of healthy skin (i), NLS (ii, iii) and LS (iv, v) areas of BCC and SCC, specimens. Psoriatic skin biopsies were also analyzed (vi). Sections were counterstained with Mayer's H&E and were visually evaluated by an pathologist experienced in dermatology. […] (B) Graphs show SOCS3 and SOCS1 mRNA levels which were detected by real-time PCR analysis in cultured SCC (CAL27 and CAL33) and BCC (M77015) skin tumor lines left untreated or stimulated with IL-22 or IFN-γ for 3 h and normalized for β-actin mRNA expression levels. […] SOCS1 was detected by IP using a specific anti-SOCS1 Ab, whereas SOCS3 by WB with an anti-SOCS3 Ab. […] Densitometric intensity (D.I.) of SOCS1 or SOCS3/β-actin was calculated from three independent experiments and numerically expressed as D. I. Ratio. *p < 0.01; **p < 0.05. […] SOCS3 and phospho-Tyr STAT3 levels were detected by WB and normalized to β-actin levels. […]
# [3] = system: SOCS1 expression in keratinocytes and SCC/BCC lines; assay: SOCS1 mRNA and protein induction; assay type: cell-based; settings: all cell lines, 3 h mRNA, 6 h protein
# Description: (§5) Figure 4 SOCS3 and SOCS1 are poorly expressed in the epidermis of NMSC lesions and are not induced in transformed keratinocytes by IL-22 (A) Immunohistochemistry for SOCS3 and SOCS1 (red staining) was performed respectively on frozen or paraffin-embedded sections from biopsies of healthy skin (i), NLS (ii, iii) and LS (iv, v) areas of BCC and SCC, specimens. Psoriatic skin biopsies were also analyzed (vi). Sections were counterstained with Mayer's H&E and were visually evaluated by an pathologist experienced in dermatology. One out of four representative staining is shown. Scale bars, […]. (B) Graphs show SOCS3 and SOCS1 mRNA levels which were detected by real-time PCR analysis in cultured SCC (CAL27 and CAL33) and BCC (M77015) skin tumor lines left untreated or stimulated with IL-22 or IFN-γ for 3 h and normalized for β-actin mRNA expression levels. All data were obtained from three independent experiments. […] SOCS1 was detected by IP using a specific anti-SOCS1 Ab, whereas SOCS3 by WB with an anti-SOCS3 Ab. […] Densitometric intensity (D.I.) of SOCS1 or SOCS3/β-actin was calculated from three independent experiments and numerically expressed as D. I. Ratio. *p < 0.01; **p < 0.05. […] SOCS3 and phospho-Tyr STAT3 levels were detected by WB and normalized to β-actin levels. […]
# [4] = system: SOCS3 expression in SCC and BCC skin tumor lines; assay: SOCS3 mRNA and protein induction in SCC or BCC tumor cells; assay type: cell-based; settings: SCC (CAL27, CAL33) and BCC (M77015) lines, 3 h mRNA, 6 h protein
# Description: as §5
Compound,"wound closure, IL-22-treated (CAL33 cells)",proliferation (effect relative to KIR-ESS) (healthy keratinocytes),proliferation (effect relative to KIR-ESS) [1],"wound closure / migration, resting cells (CAL27 cells; CAL27, without IL-22, 40 μM peptide or S31-201 10 μM)","wound closure, IL-22-treated (CAL27 cells; CAL27, 40 μM peptide, PD98059 20 μM or S3I-201 10 μM, IL-22 50 ng/ml)",SOCS3 mRNA and protein expression [2],SOCS1 mRNA and protein expression [3],SOCS3 mRNA and protein expression [4]
Cc1ccc(S(=O)(=O)OCC(=O)Nc2ccc(C(=O)O)c(O)c2)cc1 [S3I-201],effect similar to those obtained with the chemical Erk1/2 and STAT3 inhibitors,KIR-ESS effect was similar to that observed in all healthy and transformed keratinocyte cultures,KIR-ESS effect was similar to that observed in all healthy and transformed keratinocyte cultures,efficacious in inhibiting migration of CAL27 cells,effect similar to those obtained with the chemical Erk1/2 and STAT3 inhibitors,,,
"IFN-γ: cytokine stimulus, R&D Systems",,,,,,significantly up-regulated by IFN-γ in all cell lines,"significantly up-regulated by IFN-γ in all cell lines both at transcriptional and protein level, with the exception of SOCS1 protein in the BCC lines",significantly up-regulated by IFN-γ in all cell lines
